Experimental data from patent publication US11274328B2, “Methods for producing rebaudioside D and rebaudioside M and compositions thereof” (SICHUAN INGIA BIOSYNTHETIC CO., LTD., priority 2018, dated 2022).

Experiments:
[1] = Sensory analysis (triangle test), taste comparison with sucrose as control sample; format: in vivo; conditions: vs sucrose; for Difference (number of answers) / No difference (number of answers): aqueous solutions of same sweetness
Excerpt: The sweetener composition shall be tested, evaluated and analyzed by referring to Sensory Analysis Methodology (Triangular Test) (BS ISO 4120) and Sensory Analysis Method (Triangle Test) (GB/T 12311). The specific analysis method is as follows:
Method and principle: A group of three samples shall be provided to evaluators, two of which are identical and the evaluators shall select a single sample.
Preparation of test samples: Enough samples A and B shall be provided, and every three test samples are a group.
Sample groups with equal number of samples shall be prepared from laboratory samples in the following six combinations: ABB, AAB, ABA, BAA, BBA and BAB.
Test requirements: Evaluators shall not make conclusion as to the nature of samples from sample supply methods. All test sample groups shall be prepared in the same way [the same equipment, the same container, the same quantity of products and the same arrangement (triangle, straight line, etc.)]. In any sample group, the temperature of test samples shall be the same, and if possible, the temperature of all other sample groups in the test series provided shall also be the same. Test sample containers shall be numbered generally with three random digits. The number shall be different for each test.
Test techniques: Evaluators shall be notified of the test purpose to the extent that their conclusions are not biased. Groups of prepared samples shall be randomly assigned to the evaluators, then the evaluators shall check test samples of each group in the specified order, and the order shall be the same in the same series of tests. While evaluating three test samples in the same group, the evaluators shall have the opportunity to retest each sample. The test leader can tell the evaluators the quantity and volume of samples provided when necessary. When the number of evaluators is less than a multiple of 6, the following two approaches can be taken. (a) Discard redundant sample groups, or (b) Provide each evaluator with six groups of samples for retest.
When the evaluator cannot identify the difference, the answer “no difference” is allowed.
The number of “difference” or “no difference” answers shall be counted. When the number of evaluators (n) is greater than 100, the minimum number of answers needed to determine the significant difference in the triangle test at different significance levels (X) is calculated according to the following formula, and the nearest integer value shall be taken. Where, α is the significance level, which is an expected value.
The above evaluation and analysis methods were applied to analyze different compositions, with sucrose as the control sample. Samples and the control sample were prepared respectively into aqueous solutions with the same sweetness and then tested according to the requirements of the above-mentioned sensory analysis method. […]
Rebaudioside A (>97%), DM 3:1 mixture, DM 3:1 mixture-rebaudioside A (1:9, w/w), DM 3:1 mixture-rebaudioside A (9:1, w/w), DM 3:1 mixture-rebaudioside A (3:7, w/w) were analyzed according to the evaluation and analysis methods described above, with sucrose as the control sample. Samples and the control sample were prepared respectively into aqueous solutions with the same sweetness and then tested according to the requirements of the above-mentioned sensory analysis method. […]
Rebaudioside A (>97%), DM 3:1 mixture, DM 3:1 mixture-rebaudioside A (3:7, w/w), DM 3:1 mixture-rebaudioside A (7:3, w/w), DM 3:1 mixture-rebaudioside A (4:6, w/w) were analyzed according to the evaluation and analysis methods described above, with sucrose as the control sample. Samples and the control sample were prepared respectively into aqueous solutions with the same sweetness and then tested according to the requirements of the above-mentioned sensory analysis method. Effective evaluators are 125 primary evaluators, who were allowed to answer “no difference”. […]

[2] = Solubility of reb M in water and solvents; format: physicochemical
[3] = Heat and pH stability of reb M; format: physicochemical
[4] = relative to sucrose of the same weight; cited from earlier work
[5] = Evaluation I, 135 primary evaluators
[6] = Evaluation II, 135 primary evaluators
[7] = Evaluation III, 125 primary evaluators
[8] = Evaluation IV, 128 primary evaluators

Question: Which results are given for `C=C1C[C@@]23CC[C@H]4[C@@](C)(CCC[C@@]4(C)C(=O)O[C@@H]4O[C@H](CO)[C@@H](O)[C@H](O[C@@H]5O[C@H](CO)[C@@H](O)[C@H](O)[C@H]5O)[C@H]4O[C@@H]4O[C@H](CO)[C@@H](O)[C@H](O)[C@H]4O)[C@@H]2CC[C@]1(O[C@@H]1O[C@H](CO)[C@@H](O)[C@H](O[C@@H]2O[C@H](CO)[C@@H](O)[C@H](O)[C@H]2O)[C@H]1O[C@@H]1O[C@H](CO)[C@@H](O)[C@H](O)[C@H]1O)C3` [RM]?
Answer: Difference (number of answers) [1, 5]: 97; No difference (number of answers) [1, 5]: 38; Conclusion (taste compared with sucrose) [1, 5]: Dissimilar; solubility in organic solvents ([2]; acetone, benzene, chloroform, and ether): insoluble; solubility in diluted alcohols ([2]; diluted solutions of methanol, ethanol, n-propanol, and isopropanol): soluble; solubility in water ([2]; water, increases with an increase in temperature): around 0.3%; heat and pH stability [3]: heat and pH-stable; Sweetness Multiple (1 for sucrose of the same weight) [4]: 200-350

Question: For `C=C1C[C@@]23CC[C@H]4[C@@](C)(CCC[C@@]4(C)C(=O)O[C@@H]4O[C@H](CO)[C@@H](O)[C@H](O)[C@H]4O)[C@@H]2CC[C@]1(O[C@@H]1O[C@H](CO)[C@@H](O)[C@H](O[C@@H]2O[C@H](CO)[C@@H](O)[C@H](O)[C@H]2O)[C@H]1O[C@@H]1O[C@H](CO)[C@@H](O)[C@H](O)[C@H]1O)C3` [RA, rebaudioside A], which “Difference (number of answers)” value [1, 6] is on record?
Answer: 85

Question: And the “No difference (number of answers)” value [1, 6]?
Answer: 50

Question: What about the “Conclusion (taste compared with sucrose)” value [1, 6] of the same compound?
Answer: Dissimilar

Question: And the “Difference (number of answers)” value [1, 7]?
Answer: 78

Question: And the “No difference (number of answers)” value [1, 7]?
Answer: 47

Question: What about the “Conclusion (taste compared with sucrose)” value [1, 7] of the same compound?
Answer: Dissimilar

Question: What about the “Difference (number of answers)” value [1, 8] of the same compound?
Answer: 82

Question: And the “No difference (number of answers)” value [1, 8]?
Answer: 46

Question: What about the “Conclusion (taste compared with sucrose)” value [1, 8] of the same compound?
Answer: Dissimilar

Question: And the “Sweetness Multiple (1 for sucrose of the same weight)” value (shortened to “Sweetness Multiple”) [4]?
Answer: 350-450

Question: With `C=C1C[C@@]23CC[C@H]4[C@@](C)(CCC[C@@]4(C)C(=O)O[C@@H]4O[C@H](CO)[C@@H](O)[C@H](O)[C@H]4O)[C@@H]2CC[C@]1(O[C@@H]1O[C@H](CO)[C@@H](O)[C@H](O)[C@H]1O[C@@H]1O[C@H](CO)[C@@H](O)[C@H](O)[C@H]1O)C3` [STv, stevioside, reference compound] as the compound, how does the “Sweetness Multiple” value [4] read?
Answer: 270-300

Question: With “13-[(2O-β-D-glucopyranosyl-3-O-β-D-glucopyranosyl-β-D-glucopyranosyl)oxy]kaur-16-en18-oic acid, 2-O-β-D-glucopyranosyl-3-O-β-D-glucopyranosyl-β-D-glucopyranosyl ester [RD]” as the compound, how does the “Difference (number of answers)” value [1, 5] read?
Answer: 79

Question: What about the “No difference (number of answers)” value [1, 5] of the same compound?
Answer: 56

Question: What about the “Conclusion (taste compared with sucrose)” value [1, 5] of the same compound?
Answer: Similar

Question: And the “Sweetness Multiple” value [4]?
Answer: 150-250
